Activity calls are given as the source filed them. The rule behind the calls is not given here.
Key:
HL-60 = assay: Antiproliferative activity against human HL-60 cells assessed as cell growth inhibition incubated for 72 hrs by resazurin dye based fluorescence analysis; assay type: functional
U-937 = assay: Antiproliferative activity against human U-937 cells assessed as cell growth inhibition incubated for 72 hrs by resazurin dye based fluorescence analysis; assay type: functional
THP-1 = assay: Antiproliferative activity against human THP-1 cells assessed as cell growth inhibition incubated for 72 hrs by resazurin dye based fluorescence analysis; assay type: functional
[1] = molecular target: CDK9/cyclin T1 (Homo sapiens) (UniProt O60563+P50750); assay: Inhibition of human CDK9/Cyclin T1 assessed as residual activity at 100 nM relative to control; assay type: protein-complex assay
MV4-11 [2] = assay: Induction of apoptosis in human MV4-11 cells assessed as activation of caspase 3 incubated for 16 hrs in presence of Ac-DEVD-AMC by fluorescence microplate reader analysis; assay type: functional, cell-based; settings: dose 0.004-2.5 µM
MV4-11 [3] = assay: Induction of apoptosis in human MV4-11 cells assessed as activation of caspase 7 incubated for 16 hrs in presence of Ac-DEVD-AMC by fluorescence microplate reader analysis; assay type: functional, cell-based; settings: dose 0.004-2.5 µM
MV4-11 [4] = assay: Induction of apoptosis in human MV4-11 cells assessed as PARP-1 cleavage incubated for 16 hrs in presence of Ac-DEVD-AMC by fluorescence microplate reader analysis; assay type: functional, cell-based; settings: dose 0.004-2.5 µM
MV4-11 [5] = assay: Induction of apoptosis in CRBN-deficient human MV4-11 cells assessed as activation of caspase 3 at 0.004 to 25 uM incubated for 16 hrs in presence of Ac-DEVD-AMC by fluorescence microplate reader analysis; assay type: functional, cell-based; settings: dose 0.004-25 µM
MV4-11 [6] = assay: Induction of cell cycle arrest in human MV4-11 cells assessed as accumulation of cells at G1 phase at 0.004 uM incubated for 16 hrs by PI staining based flow cytometry analysis (reference value: 62.97%); assay type: functional
MV4-11 [7] = assay: Induction of cell cycle arrest in human MV4-11 cells assessed as accumulation of cells at S phase at 0.004 uM incubated for 16 hrs by PI staining based flow cytometry analysis (reference value: 26.16%); assay type: functional
MV4-11 [8] = assay: Induction of cell cycle arrest in human MV4-11 cells assessed as accumulation of cells at S phase at 0.02 uM incubated for 16 hrs by PI staining based flow cytometry analysis (reference value: 26.16%); assay type: functional
MV4-11 [9] = assay: Induction of cell cycle arrest in human MV4-11 cells assessed as accumulation of cells at S phase at 0.1 uM incubated for 16 hrs by PI staining based flow cytometry analysis (reference value: 26.16%); assay type: functional
MV4-11 [10] = assay: Induction of cell cycle arrest in human MV4-11 cells assessed as accumulation of cells at subG1 phase at 0.1 uM incubated for 16 hrs by PI staining based flow cytometry analysis (reference value: 10.51%); assay type: functional
MV4-11 [11] = assay: Induction of cell cycle arrest in human MV4-11 cells assessed as accumulation of cells at G1 phase at 0.5 uM incubated for 16 hrs by PI staining based flow cytometry analysis (reference value: 62.97%); assay type: functional
MV4-11 [12] = assay: Induction of cell cycle arrest in human MV4-11 cells assessed as accumulation of cells at subG1 phase at 0.5 uM incubated for 16 hrs by PI staining based flow cytometry analysis (reference value: 10.51%); assay type: functional
MV4-11 [13] = assay: Induction of cell cycle arrest in human MV4-11 cells assessed as accumulation of cells at S phase at 2.5 uM incubated for 16 hrs by PI staining based flow cytometry analysis (reference value: 26.16%); assay type: functional
MV4-11 [14] = assay: Induction of cell cycle arrest in human MV4-11 cells assessed as accumulation of cells at G2/M phase at 2.5 uM incubated for 16 hrs by PI staining based flow cytometry analysis (reference value: 10.86%); assay type: functional
MV4-11 [15] = assay: Induction of cell cycle arrest in human MV4-11 cells assessed as accumulation of cells at subG1 phase at 2.5 uM incubated for 16 hrs by PI staining based flow cytometry analysis (reference value: 10.51%); assay type: functional
MV4-11 [16] = assay: Induction of cell cycle arrest in CRBN-deficient human MV4-11 cells assessed as accumulation of cells at G1 phase at 0.004 uM incubated for 16 hrs by PI staining based flow cytometry analysis (reference value: 54.05%); assay type: functional
MV4-11 [17] = assay: Induction of cell cycle arrest in CRBN-deficient human MV4-11 cells assessed as accumulation of cells at G2/M phase at 0.004 uM incubated for 16 hrs by PI staining based flow cytometry analysis (reference value: 9.34%); assay type: functional
MV4-11 [18] = assay: Induction of cell cycle arrest in CRBN-deficient human MV4-11 cells assessed as accumulation of cells at G1 phase at 0.1 uM incubated for 16 hrs by PI staining based flow cytometry analysis (reference value: 54.05%); assay type: functional
MV4-11 [19] = assay: Induction of cell cycle arrest in CRBN-deficient human MV4-11 cells assessed as accumulation of cells at S phase at 0.1 uM incubated for 16 hrs by PI staining based flow cytometry analysis (reference value: 36.91%); assay type: functional
MV4-11 [20] = assay: Induction of cell cycle arrest in CRBN-deficient human MV4-11 cells assessed as accumulation of cells at S phase at 0.5 uM incubated for 16 hrs by PI staining based flow cytometry analysis (reference value: 36.91%); assay type: functional
MV4-11 [21] = assay: Induction of cell cycle arrest in CRBN-deficient human MV4-11 cells assessed as accumulation of cells at sub-G1 phase at 0.5 uM incubated for 16 hrs by PI staining based flow cytometry analysis (reference value: 12.52%); assay type: functional
MV4-11 [22] = assay: Induction of cell cycle arrest in CRBN-deficient human MV4-11 cells assessed as accumulation of cells at G2/M phase at 2.5 uM incubated for 16 hrs by PI staining based flow cytometry analysis (reference value: 9.34%); assay type: functional
MV4-11 [23] = assay: Downregulation of Bcl-2 gene expression in human MV4-11 cells incubated for 4 hrs by qRT-PCR analysis; assay type: functional, cell-based; settings: dose 0.004-2.5 µM
MV4-11 [24] = assay: Downregulation of Myc gene expression in human MV4-11 cells incubated for 4 hrs by qRT-PCR analysis; assay type: functional, cell-based; settings: dose 0.004-2.5 µM
MV4-11 [25] = assay: Downregulation of FLT3 gene expression in human MV4-11 cells at 0.004 to 2.5 uM incubated for 4 hrs by qRT-PCR analysis; assay type: functional, cell-based; settings: dose 0.004-2.5 µM
[26] = molecular target: Receptor-type tyrosine-protein kinase FLT3 (Homo sapiens) (UniProt P36888); assay: Inhibition of FLT3 signalling pathway in human MV4-11 cells assessed as reduction in STAT5 phosphorylation at Y694 residues at 0.1 to 0.5 uM preincubated for 90 mins with 4-hydroxythalidomide followed by compound addition and further incubated for 16 hrs by immunoblot analysis; assay type: cell-based; settings: dose 0.1-0.5 µM
[27] = molecular target: Protein cereblon/Receptor-type tyrosine-protein kinase FLT3 (Homo sapiens) (UniProt P36888+Q96SW2); assay: PROTAC activity at CRBN/FLT3 in human MV4-11 cells at 0.1 to 0.5 uM preincubated for 90 mins with 4-hydroxythalidomide followed by compound addition and further incubated for 16 hrs by immunoblot analysis; assay type: cell-based; settings: dose 0.1-0.5 µM
MV4-11 [28] = assay: Induction of apoptosis in human MV4-11 cells assessed as activation of caspase 7 at 0.1 to 0.5 uM preincubated for 90 mins with 4-hydroxythalidomide followed by compound addition and further incubated for 16 hrs in presence of Ac-DEVD-AMC by fluorescence microplate reader analysis; assay type: functional, cell-based; settings: dose 0.1-0.5 µM

Sequence of Receptor-type tyrosine-protein kinase FLT3 (Homo sapiens) (P36888 whole entry): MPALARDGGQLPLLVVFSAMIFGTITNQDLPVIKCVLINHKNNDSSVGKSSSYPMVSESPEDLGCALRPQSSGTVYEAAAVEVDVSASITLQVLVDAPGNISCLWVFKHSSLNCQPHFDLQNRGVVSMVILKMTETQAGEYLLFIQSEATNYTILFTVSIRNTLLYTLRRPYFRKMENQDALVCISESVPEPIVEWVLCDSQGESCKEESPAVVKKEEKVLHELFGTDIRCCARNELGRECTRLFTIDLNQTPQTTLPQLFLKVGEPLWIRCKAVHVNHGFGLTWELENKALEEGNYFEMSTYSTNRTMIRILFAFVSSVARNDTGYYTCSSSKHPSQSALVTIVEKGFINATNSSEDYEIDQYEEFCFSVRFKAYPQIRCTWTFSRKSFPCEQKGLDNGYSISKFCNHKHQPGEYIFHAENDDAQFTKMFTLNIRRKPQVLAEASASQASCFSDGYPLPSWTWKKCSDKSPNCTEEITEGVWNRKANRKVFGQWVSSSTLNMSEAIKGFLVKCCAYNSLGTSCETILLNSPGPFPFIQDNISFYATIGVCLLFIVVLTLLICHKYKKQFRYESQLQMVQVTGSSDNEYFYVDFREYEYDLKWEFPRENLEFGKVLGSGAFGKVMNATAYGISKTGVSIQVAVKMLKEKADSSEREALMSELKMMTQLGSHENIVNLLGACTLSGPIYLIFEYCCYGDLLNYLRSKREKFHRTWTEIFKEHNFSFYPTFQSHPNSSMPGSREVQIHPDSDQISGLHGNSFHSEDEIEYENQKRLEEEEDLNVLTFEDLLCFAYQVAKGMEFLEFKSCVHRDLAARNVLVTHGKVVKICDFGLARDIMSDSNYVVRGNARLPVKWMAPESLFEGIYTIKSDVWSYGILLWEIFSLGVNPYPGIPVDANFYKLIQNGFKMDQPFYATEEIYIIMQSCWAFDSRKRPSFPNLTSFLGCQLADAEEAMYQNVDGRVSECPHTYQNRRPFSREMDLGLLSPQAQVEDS
Sequence of Protein cereblon/Receptor-type tyrosine-protein kinase FLT3 (Homo sapiens) (P36888 27-993 limits assumed): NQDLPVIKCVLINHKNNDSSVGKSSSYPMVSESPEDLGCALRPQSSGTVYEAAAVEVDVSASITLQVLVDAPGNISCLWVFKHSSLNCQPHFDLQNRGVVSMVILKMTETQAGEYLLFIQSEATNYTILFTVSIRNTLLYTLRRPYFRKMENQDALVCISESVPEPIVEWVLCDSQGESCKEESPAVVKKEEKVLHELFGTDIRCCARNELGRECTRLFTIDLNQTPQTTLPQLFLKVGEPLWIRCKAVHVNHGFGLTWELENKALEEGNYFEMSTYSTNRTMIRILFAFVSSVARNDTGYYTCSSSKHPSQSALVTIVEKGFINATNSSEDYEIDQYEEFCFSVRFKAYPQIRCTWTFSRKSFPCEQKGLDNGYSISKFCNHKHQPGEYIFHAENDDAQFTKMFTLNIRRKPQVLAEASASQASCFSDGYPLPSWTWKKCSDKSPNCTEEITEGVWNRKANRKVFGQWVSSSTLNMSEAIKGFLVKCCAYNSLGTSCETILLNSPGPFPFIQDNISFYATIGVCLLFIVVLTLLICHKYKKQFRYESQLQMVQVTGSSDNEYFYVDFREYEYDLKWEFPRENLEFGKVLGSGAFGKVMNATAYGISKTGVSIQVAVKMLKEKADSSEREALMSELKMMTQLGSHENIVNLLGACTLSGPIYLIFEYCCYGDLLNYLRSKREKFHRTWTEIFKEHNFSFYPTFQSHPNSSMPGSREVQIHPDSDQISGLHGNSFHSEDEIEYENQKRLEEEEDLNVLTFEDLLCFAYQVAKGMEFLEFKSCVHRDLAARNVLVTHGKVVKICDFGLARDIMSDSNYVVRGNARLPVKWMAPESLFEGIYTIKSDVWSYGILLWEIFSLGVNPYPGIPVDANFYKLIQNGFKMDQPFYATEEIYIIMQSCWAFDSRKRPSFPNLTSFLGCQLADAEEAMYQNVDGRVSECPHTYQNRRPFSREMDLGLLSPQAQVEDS
Sequence of Protein cereblon/Receptor-type tyrosine-protein kinase FLT3 (Homo sapiens) (Q96SW2 whole entry partner): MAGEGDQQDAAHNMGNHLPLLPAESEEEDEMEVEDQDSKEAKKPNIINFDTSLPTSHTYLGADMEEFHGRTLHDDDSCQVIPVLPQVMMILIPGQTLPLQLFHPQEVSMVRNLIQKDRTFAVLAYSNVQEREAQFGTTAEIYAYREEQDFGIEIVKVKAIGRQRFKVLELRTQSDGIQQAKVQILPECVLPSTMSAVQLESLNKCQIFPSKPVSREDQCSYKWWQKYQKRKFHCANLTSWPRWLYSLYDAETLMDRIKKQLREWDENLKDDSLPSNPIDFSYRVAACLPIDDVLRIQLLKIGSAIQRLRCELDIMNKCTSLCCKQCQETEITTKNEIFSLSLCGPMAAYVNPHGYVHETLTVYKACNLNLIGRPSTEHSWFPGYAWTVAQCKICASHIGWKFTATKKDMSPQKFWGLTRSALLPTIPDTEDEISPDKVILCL

With `NC1CCC(Nc2nc(Nc3ccc(N4CCN(CCOCCOCCNC(=O)CNc5cccc6c5C(=O)N(C5CCC(=O)NC5=O)C6=O)CC4)cc3)c3ncn(C4CCCC4)c3n2)CC1` (stereo unspecified) the GI50 (HL-60) was 6.12 µM, the GI50 (U-937) was 9.51 µM and the GI50 (THP-1) was 9.99 µM. For the same molecule, the Activity [1] was 8%, the Activity (MV4-11 [2]) was “Dose-Dependent Effect” and the Activity (MV4-11 [3]) was “Dose-Dependent Effect”. For the same molecule, the Activity (MV4-11 [4]) was “Dose-Dependent Effect”, the Activity (MV4-11 [5]) was “inactive” and the Activity (MV4-11 [6]) was 69.48%. For the same molecule, the Activity (MV4-11 [7]) was 21.5%, the Activity (MV4-11 [8]) was 12.41% and the Activity (MV4-11 [9]) was 6.42%. It also gave an Activity (MV4-11 [10]) of 20.86%, an Activity (MV4-11 [11]) of 74.6% and an Activity (MV4-11 [12]) of 58.62%. It also gave an Activity (MV4-11 [13]) of 34.87%, an Activity (MV4-11 [14]) of 7.79% and an Activity (MV4-11 [15]) of 79.82%. The Activity (MV4-11 [16]) was 63.08%, the Activity (MV4-11 [17]) was 8.04% and the Activity (MV4-11 [18]) was 90.54%. For the same molecule, the Activity (MV4-11 [19]) was 6.07%, the Activity (MV4-11 [20]) was 5.13% and the Activity (MV4-11 [21]) was 21.07%. The Activity (MV4-11 [22]) was 4.56%, the Activity (MV4-11 [23]) was “Dose-Dependent Effect” and the Activity (MV4-11 [24]) was “Dose-Dependent Effect”. For the same molecule, the Activity (MV4-11 [25]) was “inactive”, the inhibition [26] was “Active” and the Activity [27] was “inactive”. The Activity (MV4-11 [28]) was “inactive”.

— ChEMBL document CHEMBL5352441, “Modulation of FLT3-ITD and CDK9 in acute myeloid leukaemia cells by novel proteolysis targeting chimera (PROTAC)” (2022)
